Measurements as given in ChEMBL document CHEMBL5370591, “A Potent and Narrow-Spectrum Antibacterial against Clostridioides difficile Infection” (J Med Chem, 2023).
Values after ≈ are worked out from the molar mass of the structure shown. Active and inactive are the calls of the source. The rule behind the calls is not given here.

Experiments:
Clostridioides difficile [1] = experiment: Antibacterial activity against Clostridium difficile 24531 assessed as inhibition of bacterial growth by broth microdilution method; type: functional
Clostridioides difficile [2] = experiment: Antibacterial activity against Clostridium difficile 26675 assessed as inhibition of bacterial growth by broth microdilution method; type: functional
Enterococcus faecium [3] = experiment: Antibacterial activity against vancomycin susceptible Enterococcus faecium119-39A assessed as inhibition of bacterial growth by broth microdilution method; type: functional; settings: 119-39A
[4] = test system: Staphylococcus epidermidis; experiment: Antibacterial activity against Staphylococcus epidermidis ATCC 35547 assessed as inhibition of bacterial growth by broth microdilution method; type: functional
Enterococcus faecium [5] = experiment: Antibacterial activity against vancomycin resistant Enterococcus faecium 106 assessed as inhibition of bacterial growth by broth microdilution method; type: functional
Enterococcus faecalis [6] = experiment: Antibacterial activity against vancomycin resistant Enterococcus faecalis 99 assessed as inhibition of bacterial growth by broth microdilution method; type: functional
Enterococcus faecium [7] = experiment: Antibacterial activity against Enterococcus faecium NCTC 7171 assessed as inhibition of bacterial growth by broth microdilution method; type: functional
Enterococcus faecalis [8] = experiment: Antibacterial activity against vancomycin susceptible Enterococcus faecalis 201 assessed as inhibition of bacterial growth by broth microdilution method; type: functional
Acinetobacter baumannii = experiment: Antibacterial activity against Acinetobacter baumannii ATCC17961 assessed as inhibition of bacterial growth by broth microdilution method; type: functional
Pseudomonas aeruginosa = experiment: Antibacterial activity against Pseudomonas aeruginosa ATCC27853 assessed as inhibition of bacterial growth by broth microdilution method; type: functional
[9] = test system: Staphylococcus haemolyticus; experiment: Antibacterial activity against Staphylococcus haemolyticus ATCC 29970 assessed as inhibition of bacterial growth by broth microdilution method; type: functional
Corynebacterium sp. = experiment: Antibacterial activity against Corynebacterium sp. HM-784 assessed as inhibition of bacterial growth by broth microdilution method; type: functional
Staphylococcus aureus [10] = experiment: Antibacterial activity against vancomycin-resistant Staphylococcus aureus clinical isolate 1 assessed as inhibition of bacterial growth by broth microdilution method; type: functional
Clostridioides difficile [11] = experiment: Antibacterial activity against Clostridium difficile ATCC 43255 assessed as damage in cell wall at 8 time MIC incubated for 24 hrs by scanning electron microscopy based analysis; type: functional, organism-based
Bacillus licheniformis = experiment: Antibacterial activity against Bacillus licheniformis ATCC 12759 assessed as inhibition of bacterial growth by broth microdilution method; type: functional
Klebsiella pneumoniae = experiment: Antibacterial activity against Klebsiella pneumoniae ATCC700603 assessed as inhibition of bacterial growth by broth microdilution method; type: functional
Escherichia coli = experiment: Antibacterial activity against Escherichia coli ATCC25922 assessed as inhibition of bacterial growth by broth microdilution method; type: functional
Clostridioides difficile [12] = experiment: Antibacterial activity against Clostridium difficile 23828 assessed as inhibition of bacterial growth by broth microdilution method; type: functional
Klebsiella aerogenes = experiment: Antibacterial activity against Klebsiella aerogenes ATCC35029 assessed as inhibition of bacterial growth by broth microdilution method; type: functional
Streptococcus pyogenes = experiment: Antibacterial activity against Streptococcus pyogenes ATCC 49399 assessed as inhibition of bacterial growth by broth microdilution method; type: functional
Staphylococcus aureus [13] = experiment: Antibacterial activity against vancomycin-resistant Staphylococcus aureus clinical isolate 2 assessed as inhibition of bacterial growth by broth microdilution method; type: functional
Enterococcus faecalis [14] = experiment: Antibacterial activity against Enterococcus faecalis ATCC 29212 assessed as inhibition of bacterial growth by broth microdilution method; type: functional
Bifidobacterium longum = experiment: Antibacterial activity against Bifidobacterium longum HM-846 assessed as inhibition of bacterial growth by broth microdilution method; type: functional
Clostridioides difficile [15] = experiment: Antibacterial activity against Clostridium difficile BAA-1803 assessed as inhibition of bacterial growth by broth microdilution method; type: functional
Clostridioides difficile [16] = experiment: Antibacterial activity against Clostridium difficile BAA-1870 assessed as inhibition of bacterial growth by broth microdilution method; type: functional
Bacillus cereus = experiment: Antibacterial activity against Bacillus cereus ATCC 13061 assessed as inhibition of bacterial growth by broth microdilution method; type: functional
[17] = Selectivity ratio of IC50 for human THP-1 cells to MIC for Clostridium difficile ATCC 43255; type: toxicity
THP-1 = experiment: Cytotoxicity against human THP-1 cells assessed as increase in LDH release incubate for 24 hrs by trypan-blue staining based analysis; type: functional, cell-based; settings: THP-1, 24 h
Clostridioides difficile [18] = experiment: Antibacterial activity against Clostridium difficile ATCC 43255 measured after 48 hrs by two fold serial dilution method; type: functional
[19] = test system: Limosilactobacillus reuteri; experiment: Antibacterial activity against Lactobacillus reuteri HM-102 assessed as inhibition of bacterial growth by broth microdilution method; type: functional
Clostridioides difficile [20] = experiment: Antibacterial activity against Clostridium difficile NR49305 assessed as inhibition of bacterial growth by broth microdilution method; type: functional
Clostridioides difficile [21] = experiment: Antibacterial activity against Clostridium difficile NR49318 assessed as inhibition of bacterial growth by broth microdilution method; type: functional
Clostridioides difficile [22] = experiment: Antibacterial activity against Clostridium difficile NR49310 assessed as inhibition of bacterial growth by broth microdilution method; type: functional
Fusobacterium nucleatum = experiment: Antibacterial activity against Fusobacterium nucleatum HM-992 assessed as inhibition of bacterial growth by broth microdilution method; type: functional
Clostridioides difficile [23] = experiment: Antibacterial activity against Clostridium difficile ATCC 43255 assessed as inhibition of bacterial growth by broth microdilution method; type: functional
Bacteroides fragilis = experiment: Antibacterial activity against Bacteroides fragilis HM-709 assessed as inhibition of bacterial growth by broth microdilution method; type: functional
Streptococcus oralis = experiment: Antibacterial activity against Streptococcus oralis ATCC 9811 assessed as inhibition of bacterial growth by broth microdilution method; type: functional
Clostridioides difficile [24] = experiment: Antibacterial activity against Clostridium difficile NR49292 assessed as inhibition of bacterial growth by broth microdilution method; type: functional
Veillonella = experiment: Antibacterial activity against Veillonella HM-49 assessed as inhibition of bacterial growth by broth microdilution method; type: functional
Eubacterium sp. = experiment: Antibacterial activity against Eubacterium sp. HM-178 assessed as inhibition of bacterial growth by broth microdilution method; type: functional
Clostridioides difficile [25] = experiment: Antibacterial activity against Clostridium difficile NR49302 assessed as inhibition of bacterial growth by broth microdilution method; type: functional
Clostridioides difficile [26] = experiment: Antibacterial activity against Clostridium difficile NR49294 assessed as inhibition of bacterial growth by broth microdilution method; type: functional
Lactobacillus gasseri = experiment: Antibacterial activity against Lactobacillus gasseri HM-644 assessed as inhibition of bacterial growth by broth microdilution method; type: functional

| Structure (SMILES) | MIC (Clostridioides difficile [1]) [µg/mL] | MIC (Clostridioides difficile [2]) [µg/mL] | MIC (Enterococcus faecium [3]) [µg/mL] | MIC (Enterococcus faecium [5]) [µg/mL] | MIC (Acinetobacter baumannii) [µg/mL] | MIC (Pseudomonas aeruginosa) [µg/mL] | MIC [9] [µg/mL] | MIC (Corynebacterium sp.) [µg/mL] | MIC (Staphylococcus aureus [10]) [µg/mL] | MIC (Klebsiella pneumoniae) [µg/mL] | MIC (Escherichia coli) [µg/mL] | MIC (Clostridioides difficile [12]) [µg/mL] | MIC (Klebsiella aerogenes) [µg/mL] | MIC (Bifidobacterium longum) [µg/mL] | MIC (Clostridioides difficile [15]) [µg/mL] | MIC (Clostridioides difficile [16]) [µg/mL] | selectivity ratio [17] | IC50 (THP-1) [µg/mL] | MIC (Clostridioides difficile [18]) [µg/mL] | also measured |
| --- | --- | --- | --- | --- | --- | --- | --- | --- | --- | --- | --- | --- | --- | --- | --- | --- | --- | --- | --- | --- |
| Cc1ncc([N+](=O)[O-])n1CCO [METRONIDAZOLE] | 0.5 (≈ 2.92 µM) | 4 (≈ 23.4 µM) | > 16 | > 16 | > 128 | > 128 | > 256 | > 32 | > 256 | > 128 | > 128 | 0.5 (≈ 2.92 µM) | > 128 | 0.05 (≈ 0.292 µM) | 0.5 (≈ 2.92 µM) | 0.5 (≈ 2.92 µM) | – | – | – | MIC [4]: > 128 µg/mL; MIC (Enterococcus faecalis [6]): > 256 µg/mL; MIC (Enterococcus faecium [7]): > 128 µg/mL; MIC (Enterococcus faecalis [8]): > 256 µg/mL; Activity (Clostridioides difficile [11]): inactive; MIC (Bacillus licheniformis): > 256 µg/mL; MIC (Streptococcus pyogenes): > 128 µg/mL; MIC (Staphylococcus aureus [13]): > 256 µg/mL; MIC (Enterococcus faecalis [14]): > 256 µg/mL; MIC (Bacillus cereus): > 256 µg/mL |
| Oc1ccc(-c2nc(-c3ccc(Oc4cccc(I)c4)cc3)no2)cc1 | – | – | – | – | – | – | – | – | – | – | – | – | – | – | – | – | 4 | 17 (≈ 37.3 µM) | – | – |
| Oc1ccc(-c2nc(-c3ccc(Oc4ccc(C(F)(F)F)cc4)cc3)no2)cc1F | – | – | – | – | – | – | – | – | – | – | – | – | – | – | – | – | 1 | 5.2 (≈ 12.5 µM) | 4 (≈ 9.61 µM) | – |
| O=[N+]([O-])c1cc(-c2nc(-c3ccc(Oc4ccc(C(F)(F)F)cc4)cc3)no2)cnc1O | – | – | – | – | – | – | – | – | – | – | – | – | – | – | – | – | 19 | 37 (≈ 83.3 µM) | 2 (≈ 4.5 µM) | – |
| CCc1c(Cl)c(O)c(Cl)c(O)c1C(=O)O[C@H]1[C@H](O)[C@H](OC)[C@H](OC/C2=C\C=C\C[C@H](O)/C(C)=C/[C@H](CC)[C@@H](O[C@@H]3OC(C)(C)[C@@H](OC(=O)C(C)C)[C@H](O)[C@@H]3O)/C(C)=C/C(C)=C/C[C@@H]([C@@H](C)O)OC2=O)O[C@@H]1C [FIDAXOMICIN] | 0.01 (≈ 0.00945 µM) | 4 (≈ 3.78 µM) | > 16 | > 16 | > 128 | > 128 | 16 (≈ 15.1 µM) | < 0.06 | 64 (≈ 60.5 µM) | > 128 | > 128 | > 8 | > 128 | < 0.01 | 1 (≈ 0.945 µM) | 0.25 (≈ 0.236 µM) | – | – | – | MIC [19]: > 32 µg/mL; MIC (Clostridioides difficile [20]): 0.01 µg/mL (≈ 0.00945 µM); MIC (Clostridioides difficile [21]): 0.125 µg/mL (≈ 0.118 µM); MIC (Clostridioides difficile [22]): ≤ 0.01 µg/mL; MIC (Fusobacterium nucleatum): < 0.06 µg/mL; MIC (Clostridioides difficile [23]): 0.06 µg/mL (≈ 0.0567 µM); MIC (Bacteroides fragilis): > 32 µg/mL; MIC (Streptococcus oralis): 32 µg/mL (≈ 30.2 µM); MIC (Clostridioides difficile [24]): 0.5 µg/mL (≈ 0.473 µM); MIC (Veillonella): 8 µg/mL (≈ 7.56 µM); MIC (Eubacterium sp.): 16 µg/mL (≈ 15.1 µM); MIC (Clostridioides difficile [25]): 0.03 µg/mL (≈ 0.0284 µM); MIC (Clostridioides difficile [26]): 0.01 µg/mL (≈ 0.00945 µM); MIC (Lactobacillus gasseri): 2 µg/mL (≈ 1.89 µM) |
| O=[N+]([O-])c1c[nH]nc1-c1nc(-c2ccc(Oc3ccc(I)cc3)cc2)no1 | – | – | – | – | – | – | – | – | – | – | – | – | – | – | – | – | 25 | 100 (≈ 210 µM) | 4 (≈ 8.42 µM) | – |
